One assay concerns the target Mu-type opioid receptor (Homo sapiens, UniProt P35372). The experiment in a line: Counterscreen for agonists of heterodimerization of the mu 1 (OPRM1) and delta 1 (OPRD1) opioid receptors: Luminescence-based cell-based high throughput dose response assay to identify agonists of OPRM1 homodimerization. It is filed as functional.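 Note: U2OS cells expressing OPRM1 and beta-arrestin as split beta-galactosidase partners.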
In assay [1] the target is 5-hydroxytryptamine receptor 5A (Homo sapiens, UniProt P47898). The experiment in a line: Counterscreen for agonists of OPRM1-OPRD1 heterodimerization: luminescence-based cell-based high throughput dose response assay to identify agonists of 5-hydroxytryptamine (serotonin) 5A receptor (HTR5A). [Related pubchem assays (depositor defined):AID504326, AID504355, AID504692, AID504904, AID504905]. It is filed as functional.
Chain of 5-hydroxytryptamine receptor 5A (P47898 whole entry): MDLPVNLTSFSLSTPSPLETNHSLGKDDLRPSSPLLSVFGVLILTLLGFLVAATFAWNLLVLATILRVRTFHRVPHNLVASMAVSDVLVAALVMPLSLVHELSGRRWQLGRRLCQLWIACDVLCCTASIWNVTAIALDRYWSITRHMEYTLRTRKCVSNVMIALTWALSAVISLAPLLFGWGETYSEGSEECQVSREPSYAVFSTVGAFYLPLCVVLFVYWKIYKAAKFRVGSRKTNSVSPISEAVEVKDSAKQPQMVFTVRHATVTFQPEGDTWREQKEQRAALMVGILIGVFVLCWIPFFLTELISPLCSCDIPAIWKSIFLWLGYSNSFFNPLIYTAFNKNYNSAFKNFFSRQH

For a further assay, the target named is X-box-binding protein 1 (Homo sapiens, UniProt P17861). Format: functional, Cricetulus griseus.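 Note: confirmatory dose-response counter-screen serving a CHOP assay.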
Chain of X-box-binding protein 1 (P17861 whole entry): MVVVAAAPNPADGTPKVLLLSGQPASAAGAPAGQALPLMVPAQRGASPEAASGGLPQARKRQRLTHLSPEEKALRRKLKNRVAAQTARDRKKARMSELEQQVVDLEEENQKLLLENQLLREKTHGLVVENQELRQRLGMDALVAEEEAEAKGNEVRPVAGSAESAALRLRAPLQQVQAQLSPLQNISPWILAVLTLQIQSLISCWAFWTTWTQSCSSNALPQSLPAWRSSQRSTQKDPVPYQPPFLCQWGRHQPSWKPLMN
In assay [2] the target is Delta-type opioid receptor (Homo sapiens, UniProt P41143). The experiment in a line: Counterscreen for agonists of heterodimerization of the mu 1 (OPRM1) and delta 1 (OPRD1) opioid receptors: Luminescence-based cell-based high throughput dose response assay to identify agonists of OPRD1 homodimerization. [Related pubchem assays (depositor defined):AID504326, AID504355, AID504692, AID504904, AID504905]. Format: functional. (A counterscreen serves to expose hits that act by an unwanted route or on another target.)
Chain of Delta-type opioid receptor (P41143 whole entry): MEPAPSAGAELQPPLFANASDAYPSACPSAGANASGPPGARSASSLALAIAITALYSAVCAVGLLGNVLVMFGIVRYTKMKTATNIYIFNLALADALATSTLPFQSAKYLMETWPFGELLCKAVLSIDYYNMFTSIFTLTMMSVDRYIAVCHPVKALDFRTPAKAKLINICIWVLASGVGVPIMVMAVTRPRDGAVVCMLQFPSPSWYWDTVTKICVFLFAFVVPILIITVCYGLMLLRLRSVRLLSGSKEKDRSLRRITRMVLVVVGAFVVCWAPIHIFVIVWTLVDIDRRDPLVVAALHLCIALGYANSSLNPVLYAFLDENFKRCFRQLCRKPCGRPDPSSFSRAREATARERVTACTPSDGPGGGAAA

Another assay has as its target T1, Caspase-3 (Homo sapiens, UniProt P42574).
T1 sequence (P42574 whole entry): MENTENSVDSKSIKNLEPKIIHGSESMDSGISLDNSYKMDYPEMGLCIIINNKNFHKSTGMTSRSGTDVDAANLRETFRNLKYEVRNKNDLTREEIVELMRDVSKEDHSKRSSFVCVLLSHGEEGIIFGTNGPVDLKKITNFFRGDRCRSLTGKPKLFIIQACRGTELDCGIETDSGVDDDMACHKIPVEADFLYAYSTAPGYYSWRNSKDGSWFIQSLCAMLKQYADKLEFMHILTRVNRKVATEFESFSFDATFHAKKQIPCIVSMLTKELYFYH
Put plainly: procaspase-3 activation potency of dual hits, dose response, counter-screen for dual procaspase-3/7 activator project, biochemical, absorbance, PC-3 D3A mutant (AID 504328).

A further assay concerns the target T2, Caspase-7 (Homo sapiens, UniProt P55210).
T2 sequence (P55210 whole entry): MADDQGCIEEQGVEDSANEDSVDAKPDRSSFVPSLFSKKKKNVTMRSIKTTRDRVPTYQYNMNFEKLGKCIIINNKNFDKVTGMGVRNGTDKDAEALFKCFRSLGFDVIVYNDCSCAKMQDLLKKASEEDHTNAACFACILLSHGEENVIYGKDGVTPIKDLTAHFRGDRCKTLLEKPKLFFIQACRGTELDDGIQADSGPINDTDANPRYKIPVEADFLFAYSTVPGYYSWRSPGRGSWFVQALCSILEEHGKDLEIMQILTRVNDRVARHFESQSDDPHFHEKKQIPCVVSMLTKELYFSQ
The experiment in a line: procaspase-7 activators, dose response, dual procaspase-3/-7 activator project, biochemical, absorbance, human (AID 504330).

The target in assay [3] is Eukaryotic translation initiation factor 4E (Mus musculus, UniProt P63073). The experiment in a line: eIF4E–eIF4G protein interaction inhibitors, dose response, biochemical, TR-FRET (AID 855).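 Note: potency for disrupting eIF4E binding to eIF4GI seen as loss of FRET.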 Format: functional.
Chain of Eukaryotic translation initiation factor 4E (P63073 whole entry): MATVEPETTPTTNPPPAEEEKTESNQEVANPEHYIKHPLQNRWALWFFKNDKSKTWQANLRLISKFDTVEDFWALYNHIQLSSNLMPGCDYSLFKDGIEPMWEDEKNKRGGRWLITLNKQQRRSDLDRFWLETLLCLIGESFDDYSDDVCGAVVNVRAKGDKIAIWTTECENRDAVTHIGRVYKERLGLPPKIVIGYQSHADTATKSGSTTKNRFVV
Assay [4] deals with T3, Replicative DNA helicase DnaB (Mycobacterium tuberculosis, UniProt P9WMR3).
T3 sequence (P9WMR3 whole entry): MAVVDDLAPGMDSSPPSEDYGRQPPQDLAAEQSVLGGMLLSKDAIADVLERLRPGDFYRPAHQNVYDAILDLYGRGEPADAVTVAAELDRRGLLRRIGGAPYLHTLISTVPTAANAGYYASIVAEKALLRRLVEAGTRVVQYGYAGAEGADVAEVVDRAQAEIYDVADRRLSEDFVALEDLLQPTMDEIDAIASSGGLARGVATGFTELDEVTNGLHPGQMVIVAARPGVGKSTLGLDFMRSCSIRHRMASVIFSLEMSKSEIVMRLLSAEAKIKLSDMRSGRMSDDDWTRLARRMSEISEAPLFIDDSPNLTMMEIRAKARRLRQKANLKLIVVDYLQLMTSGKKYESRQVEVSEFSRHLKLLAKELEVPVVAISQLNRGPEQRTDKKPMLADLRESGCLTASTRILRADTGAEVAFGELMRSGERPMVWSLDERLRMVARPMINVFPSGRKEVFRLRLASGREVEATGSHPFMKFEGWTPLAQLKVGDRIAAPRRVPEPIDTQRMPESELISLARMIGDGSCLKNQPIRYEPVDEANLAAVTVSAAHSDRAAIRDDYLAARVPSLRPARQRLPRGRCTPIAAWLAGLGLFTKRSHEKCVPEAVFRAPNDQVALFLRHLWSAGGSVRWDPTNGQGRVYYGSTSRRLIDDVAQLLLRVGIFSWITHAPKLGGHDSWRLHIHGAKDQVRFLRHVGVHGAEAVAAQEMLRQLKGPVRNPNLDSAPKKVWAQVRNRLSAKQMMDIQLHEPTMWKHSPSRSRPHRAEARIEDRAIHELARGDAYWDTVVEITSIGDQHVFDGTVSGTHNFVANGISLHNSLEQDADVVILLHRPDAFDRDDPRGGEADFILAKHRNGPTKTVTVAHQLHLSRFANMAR
Put plainly: DnaB intein splicing inhibitors, dose response, biochemical, cell-free fluorescence (AID 449749). Format: functional.

The target in another assay is T4, Protein RecA (Mycobacterium tuberculosis, UniProt P9WHJ3).
T4 sequence (P9WHJ3 whole entry): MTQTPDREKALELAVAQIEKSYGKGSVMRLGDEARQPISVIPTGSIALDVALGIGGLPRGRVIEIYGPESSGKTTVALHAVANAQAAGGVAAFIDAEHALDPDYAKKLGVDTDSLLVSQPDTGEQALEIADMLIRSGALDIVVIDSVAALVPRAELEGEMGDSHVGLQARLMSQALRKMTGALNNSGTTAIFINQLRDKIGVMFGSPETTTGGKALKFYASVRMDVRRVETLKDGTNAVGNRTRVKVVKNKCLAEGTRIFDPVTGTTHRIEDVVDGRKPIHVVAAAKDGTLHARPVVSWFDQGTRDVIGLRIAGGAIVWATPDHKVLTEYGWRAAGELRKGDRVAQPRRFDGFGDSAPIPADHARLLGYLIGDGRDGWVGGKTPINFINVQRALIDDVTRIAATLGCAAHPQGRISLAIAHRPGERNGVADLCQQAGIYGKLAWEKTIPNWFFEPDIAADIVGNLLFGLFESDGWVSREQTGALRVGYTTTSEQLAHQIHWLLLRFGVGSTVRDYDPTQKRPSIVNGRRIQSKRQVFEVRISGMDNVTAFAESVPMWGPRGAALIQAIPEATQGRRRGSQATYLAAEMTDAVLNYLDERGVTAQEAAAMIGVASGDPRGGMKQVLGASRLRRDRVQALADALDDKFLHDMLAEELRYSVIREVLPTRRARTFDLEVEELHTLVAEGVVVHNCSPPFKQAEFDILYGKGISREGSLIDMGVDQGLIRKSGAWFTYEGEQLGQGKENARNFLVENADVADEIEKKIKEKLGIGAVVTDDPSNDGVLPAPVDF
The experiment in a line: Fluorescence Cell-Free Homogeneous Dose Retest to Identify Inhibitors of RecA-Intein Splicing Activity. [Related pubchem assays (depositor defined):AID2097, AID2223, AID489010, AID492950]. Format: functional.

For assay [5], the system named is HEK293. The experiment in a line: cells. It is filed as functional, cell-based. As to conditions: Homo sapiens.
For assay [6], the target named is Nucleotide-binding oligomerization domain-containing protein 2 (Homo sapiens, UniProt Q9HC29). Put plainly: NOD2 signaling inhibitors, cell-based, luminescence, uHTS, HEK293 (AID 1566). It is filed as functional.
Chain of Nucleotide-binding oligomerization domain-containing protein 2 (Q9HC29 whole entry, the tested form may be a part): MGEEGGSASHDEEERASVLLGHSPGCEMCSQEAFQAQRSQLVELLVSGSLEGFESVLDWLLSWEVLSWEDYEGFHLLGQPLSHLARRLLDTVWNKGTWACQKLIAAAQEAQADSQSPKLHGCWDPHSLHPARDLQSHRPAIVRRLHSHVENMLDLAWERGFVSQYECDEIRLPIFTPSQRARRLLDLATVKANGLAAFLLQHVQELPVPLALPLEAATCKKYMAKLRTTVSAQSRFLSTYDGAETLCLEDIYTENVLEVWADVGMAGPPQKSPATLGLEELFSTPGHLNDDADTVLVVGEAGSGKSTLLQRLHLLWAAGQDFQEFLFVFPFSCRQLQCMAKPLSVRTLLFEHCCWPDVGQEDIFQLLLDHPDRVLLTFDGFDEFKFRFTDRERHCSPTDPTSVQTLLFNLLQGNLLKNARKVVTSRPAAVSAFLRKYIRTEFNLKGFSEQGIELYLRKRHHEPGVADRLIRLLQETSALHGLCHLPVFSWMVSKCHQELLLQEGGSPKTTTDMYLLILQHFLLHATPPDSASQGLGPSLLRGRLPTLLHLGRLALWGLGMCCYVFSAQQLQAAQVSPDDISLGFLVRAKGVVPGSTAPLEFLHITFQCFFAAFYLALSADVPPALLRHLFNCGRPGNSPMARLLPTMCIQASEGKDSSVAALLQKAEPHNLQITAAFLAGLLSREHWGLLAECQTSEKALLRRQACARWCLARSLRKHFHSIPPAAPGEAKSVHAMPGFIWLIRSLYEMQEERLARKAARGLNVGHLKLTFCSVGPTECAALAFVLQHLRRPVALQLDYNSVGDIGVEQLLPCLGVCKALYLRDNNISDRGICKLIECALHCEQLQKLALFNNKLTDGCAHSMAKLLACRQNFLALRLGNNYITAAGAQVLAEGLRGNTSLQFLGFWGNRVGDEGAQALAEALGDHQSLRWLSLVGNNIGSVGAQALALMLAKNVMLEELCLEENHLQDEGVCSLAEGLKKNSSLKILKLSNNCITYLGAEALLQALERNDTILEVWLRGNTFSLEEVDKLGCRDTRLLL
Assay [7] relates to HEK293. Put plainly: cells. Format: functional, cell-based. As to conditions: Homo sapiens. This is another data set of the same source.
The subject of assay [8] is HEK293. The experiment in a line: NOD1 signaling inhibitors, primary screen, cell-based, luminescence, uHTS (AID 1578). Format: functional. As to conditions: Homo sapiens.
Assay [9] concerns HEK293. The experiment in a line: cells. It is filed as functional, cell-based. As to conditions: Homo sapiens. The source holds these as a separate data set.
Assay [10] relates to HEK293. Put plainly: NOD2 signaling inhibitors in MDP-stimulated cells, cell-based, uHTS, luminescence (AID 2001). Format: functional. As to conditions: Homo sapiens.
Assay [11] has as its target Heat shock protein HSP 90-alpha (Homo sapiens, UniProt P07900). Format: functional, organism-based.
The target in a further assay is Beta-galactosidase (Escherichia coli, UniProt Q8VNN2). Put plainly: beta-galactosidase enzyme inhibitors and activators, dose response, artefact control for CCR6 antagonist project, biochemical, E. coli enzyme, set 3 (AID 504712). Format: functional.
Chain of Beta-galactosidase (Q8VNN2 whole entry): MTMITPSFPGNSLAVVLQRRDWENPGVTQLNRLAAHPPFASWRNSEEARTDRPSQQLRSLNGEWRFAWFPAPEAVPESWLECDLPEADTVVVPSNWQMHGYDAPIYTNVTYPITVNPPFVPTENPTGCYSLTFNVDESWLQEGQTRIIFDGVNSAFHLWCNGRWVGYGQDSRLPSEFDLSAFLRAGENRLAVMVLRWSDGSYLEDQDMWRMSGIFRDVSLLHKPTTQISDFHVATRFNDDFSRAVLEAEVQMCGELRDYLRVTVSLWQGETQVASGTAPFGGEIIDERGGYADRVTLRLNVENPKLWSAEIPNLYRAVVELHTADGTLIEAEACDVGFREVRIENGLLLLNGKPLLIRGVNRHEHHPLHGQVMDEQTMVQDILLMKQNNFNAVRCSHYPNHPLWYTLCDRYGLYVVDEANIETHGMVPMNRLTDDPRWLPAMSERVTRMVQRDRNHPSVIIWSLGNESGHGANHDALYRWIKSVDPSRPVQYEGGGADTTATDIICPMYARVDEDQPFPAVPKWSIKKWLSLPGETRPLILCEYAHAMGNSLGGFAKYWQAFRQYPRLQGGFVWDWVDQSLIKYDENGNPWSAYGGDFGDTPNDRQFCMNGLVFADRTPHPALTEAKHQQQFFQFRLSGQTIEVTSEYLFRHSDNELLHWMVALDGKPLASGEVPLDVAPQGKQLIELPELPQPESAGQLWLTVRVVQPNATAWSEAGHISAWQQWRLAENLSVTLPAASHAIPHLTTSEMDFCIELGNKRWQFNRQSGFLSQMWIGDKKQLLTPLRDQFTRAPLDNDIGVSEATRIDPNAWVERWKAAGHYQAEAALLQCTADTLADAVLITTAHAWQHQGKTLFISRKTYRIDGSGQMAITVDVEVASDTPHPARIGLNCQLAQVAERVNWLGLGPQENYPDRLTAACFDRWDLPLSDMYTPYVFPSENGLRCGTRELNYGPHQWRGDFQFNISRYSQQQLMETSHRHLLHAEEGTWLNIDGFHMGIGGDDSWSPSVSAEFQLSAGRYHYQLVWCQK
A further assay deals with Phospholipase A2 (Homo sapiens, UniProt P04054). It is filed as functional.
Chain of Phospholipase A2 (P04054 whole entry): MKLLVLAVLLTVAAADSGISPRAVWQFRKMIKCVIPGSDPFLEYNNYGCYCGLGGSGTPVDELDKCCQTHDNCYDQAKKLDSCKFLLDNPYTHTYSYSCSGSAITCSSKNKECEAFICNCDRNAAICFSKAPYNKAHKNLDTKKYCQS
For another assay, the target named is T5, Cysteine protease ATG4B (Homo sapiens, UniProt Q9Y4P1).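 Note: Fluorescence-based dose-response confirmation assay measuring inhibition of ATG4B activity.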
T5 sequence (Q9Y4P1 whole entry): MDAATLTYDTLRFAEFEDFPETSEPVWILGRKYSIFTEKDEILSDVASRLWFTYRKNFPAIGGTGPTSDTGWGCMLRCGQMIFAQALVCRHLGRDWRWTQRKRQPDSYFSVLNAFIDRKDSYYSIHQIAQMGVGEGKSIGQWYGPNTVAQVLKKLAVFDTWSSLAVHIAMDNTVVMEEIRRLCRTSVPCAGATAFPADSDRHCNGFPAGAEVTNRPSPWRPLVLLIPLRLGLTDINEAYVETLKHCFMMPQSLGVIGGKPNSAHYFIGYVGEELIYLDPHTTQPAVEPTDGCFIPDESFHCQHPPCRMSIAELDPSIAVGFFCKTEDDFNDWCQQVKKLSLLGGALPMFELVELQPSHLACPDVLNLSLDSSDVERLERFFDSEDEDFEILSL
It is filed as functional.

Assay [12] addresses Melanin-concentrating hormone receptor 1 (Homo sapiens, UniProt Q99705). The experiment in a line: Late-stage fluorescence-based counterscreen for antagonists of the G-protein coupled receptor 7 (GPR7): cell-based dose response assay to identify antagonists of the melanin-concentrating hormone receptor 1 (MCHR1). [Related pubchem assays (depositor defined):AID1861, AID1880, AID1952, AID2148, AID2251, AID2257, AID485339]. It is filed as functional.

Assay [13] deals with T6, Neuropeptides B/W receptor type 1 (Homo sapiens, UniProt P48145).
T6 sequence (P48145 whole entry): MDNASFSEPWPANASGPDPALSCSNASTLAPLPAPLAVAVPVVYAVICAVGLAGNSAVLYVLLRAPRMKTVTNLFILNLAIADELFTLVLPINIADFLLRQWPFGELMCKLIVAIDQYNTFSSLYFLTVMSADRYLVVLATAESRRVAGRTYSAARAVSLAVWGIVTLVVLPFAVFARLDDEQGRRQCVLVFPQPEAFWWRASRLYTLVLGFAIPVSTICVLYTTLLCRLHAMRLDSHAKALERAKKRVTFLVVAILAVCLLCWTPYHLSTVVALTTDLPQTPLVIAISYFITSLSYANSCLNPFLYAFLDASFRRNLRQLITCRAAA
Put plainly: GPR7 antagonist potency, late-stage follow-up, cell-based, fluorescence, dose response (AID 463251). Format: functional.

The record followed here is ChEMBL document CHEMBL1201862, “PubChem BioAssay data set” (2004).

The EC50 is the concentration at which the effect is half-maximal. In general, IC50 refers to the concentration that inhibits the measured activity by half. As usually defined, the AC50 is the concentration at which the activity in the assay is half-maximal.

Active and inactive are the calls of the source.

Chain of Melanin-concentrating hormone receptor 1 (Q99705 whole entry): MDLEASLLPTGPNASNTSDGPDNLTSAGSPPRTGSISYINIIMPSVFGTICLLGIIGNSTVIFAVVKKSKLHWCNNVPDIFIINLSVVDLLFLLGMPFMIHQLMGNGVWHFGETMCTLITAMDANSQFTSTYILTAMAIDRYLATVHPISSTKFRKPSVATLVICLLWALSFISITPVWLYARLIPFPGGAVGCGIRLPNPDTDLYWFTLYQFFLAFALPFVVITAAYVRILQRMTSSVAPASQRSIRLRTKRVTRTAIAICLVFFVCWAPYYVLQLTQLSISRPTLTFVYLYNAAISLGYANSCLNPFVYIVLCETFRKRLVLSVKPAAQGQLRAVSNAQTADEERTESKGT
Chain of Mu-type opioid receptor (P35372 whole entry): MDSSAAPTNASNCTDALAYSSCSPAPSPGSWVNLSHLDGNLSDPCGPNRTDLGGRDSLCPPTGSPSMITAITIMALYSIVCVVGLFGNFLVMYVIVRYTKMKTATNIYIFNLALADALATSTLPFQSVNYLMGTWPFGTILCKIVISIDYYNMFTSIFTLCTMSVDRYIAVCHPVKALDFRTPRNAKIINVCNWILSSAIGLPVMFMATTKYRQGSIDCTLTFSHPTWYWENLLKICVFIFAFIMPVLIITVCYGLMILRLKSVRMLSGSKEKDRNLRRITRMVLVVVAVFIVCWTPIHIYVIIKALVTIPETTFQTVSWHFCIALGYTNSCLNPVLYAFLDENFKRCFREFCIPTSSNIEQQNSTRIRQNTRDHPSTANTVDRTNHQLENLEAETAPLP

Regarding `COc1cc(C(=O)OC(C)C(=O)NCC2CCCCC2)cc(NC(=O)c2ccco2)c1OC` (stereo not drawn), the EC50 (on Mu-type opioid receptor; in assay [1]; in assay [2]) was > 92.5 µM (inactive) throughout. Besides, the “Absolute IC50 (XBP1)” value on X-box-binding protein 1 worked out at 10 µM.
In the case of `O=C(Nc1ccc(Cc2ccncc2)cc1)C1CCC(N2C(=O)C3C4C=CC(C5CC45)C3C2=O)CC1` (stereo not drawn), the EC50 at Caspase-3 and on Caspase-7 was > 85.3 µM (inactive) throughout.
Consider `CCOc1ccc(-n2c(-c3ccco3)n[nH]c2=S)cc1`, for which, in [3], the IC50 is > 64 µM (inactive).
As for `N#Cc1c(Cl)c(Cl)c2nnc(-c3ccc(Br)cc3)n2c1Cl`, the AC50 in [4] was 10.2 µM (active). Besides, the IC50 in assay [3] was > 64 µM (inactive). At Protein RecA, the EC50 is 9.3 µM (active).
As for `Cc1cc(C(=O)CSc2nnc(-c3ccco3)o2)c(C)n1-c1ccc2c(c1)OCCO2`, the IC50 in the assay with HEK293 [5] was > 20 µM (inactive); in the assay with HEK293 [7] it was 13.3 µM (active); with HEK293 [9], > 20 µM (inactive); with HEK293 [10], 14.5 µM (inactive). Besides, the EC50 in [6] is > 20 µM (inactive); in the assay with HEK293 [8] it was 5.37 µM (active).
For `O=C(Oc1ccc(Cl)c2cccnc12)c1cccnc1`, in assay [11], the AC50 was 8.18 µM (active). For the same compound, the IC50 on Beta-galactosidase is > 66.6 µM (inactive).
With `CC(C)Oc1cccc(C(=O)NC(=S)Nc2cccc(C(F)(F)F)c2)c1`, the IC50 on Beta-galactosidase is > 66.6 µM (inactive).
On to `COC(=O)C1=NN(c2ccc(Cl)cc2)C2C(=O)N(c3ccccc3OC)C(=O)C12` (stereo not drawn), for which the EC50 at Caspase-3 and on Caspase-7 was > 85.3 µM (inactive) each time.
As to `COc1ccc2nc(N3CCCCC3)c(/C=C3\SC(=S)NC3=O)cc2c1`, the IC50 in the assay with HEK293 [5] was > 20 µM (inactive); with HEK293 [7], 4.9 µM (active); on Phospholipase A2, 2.47 µM (active); with HEK293 [9] it was 19.5 µM (active); in the assay on HEK293 [10], 4.26 µM (inactive); on Cysteine protease ATG4B, 4.24 µM (active). The EC50 in [6] is 16.2 µM (active); in the assay on HEK293 [8] it was 2.17 µM (active).
In the case of `O=c1c(Oc2ccc(O)cc2)c(Cl)cnn1-c1ccc(F)cc1`, the results for the IC50 in assay [12] and in assay [13] were 8 µM (active) and 8.7 µM (active), respectively.
On to `O=C(C1CCCCN1Cc1c(F)cccc1Cl)N1CCN(c2ccc([N+](=O)[O-])cc2)CC1` (stereo not drawn), for which the IC50 in [12] and in [13] was 3.3 µM (active) throughout.
